Assays:
TE671 = assay: SRB cell growth assay, 72 h; type: cell-based; details: Homo sapiens, TE-671, most sensitive cell lines
Description: (§1) Cell growth and treatment were performed in 96-well microtitre plates CELLSTAR® (Greiner Bio-One, Germany). Cells harvested from exponential phase cultures by trypsinization were plated in 150 μl of media at optimal seeding densities. The optimal seeding densities for each cell line were determined to ensure exponential growth for the duration of the experiment. All cells growing without anticancer agents were sub-confluent by the end of the treatment as determined by visual inspection.
(§2) 150 μl of cells, after a 24-hour pre-growth period, were treated by mixing with 50 μl of the compound containing media (resulting in a final DMSO concentration of 0.1%). The cells were allowed to grow at 37° C. for 72 hours. In addition, all experiments contained a few plates with cells that were processed for measurement immediately after the 24 hours recovery period. These plates contained information about the cell number that existed before treatment, at time zero, and served to calculate the cytotoxicity.
(§3) After treatment, cells were precipitated by addition of 10% TCA. Prior to fixation, the media was aspirated as described. After an hour of incubation at 4° C., the plates were washed two times with 400 μl of deionized water. Cells were then stained with 100 μl of a 0.08% wt/v SRB. The plates were allowed to sit for at least 30 min. and washed six times with 1% acetic acid to remove unbound stain. The plates were left to dry at room temperature and bound SRB was solubilized with 100 μl of 10 mM Tris base. Measurement of optical density was performed at 560 nm on a Victor 2 plate reader (Perkin Elmer, Germany). The SRB values for A375 and H460 cell lines were near to saturation (2.5 OD units) due to the high protein content of these cells, but not cell confluence. The measurements for these cells were performed at 520 nm instead of 560 nm.
(§4) Using these measurements, cellular responses can be calculated for incomplete inhibition of cell growth (GI), complete inhibition of cell growth (T GI) and net loss of cells (LC) due to compound activity. […] This is the drug concentration causing a 50% reduction compared to the net protein increase in control cells during the drug incubation period. In other words, GI50 is IC50 corrected for time zero. Similar to IC90, calculated GI90 values are also reported for all compounds tested. TGI was calculated from Ti=Tz. […] It was calculated as 100×[(Ti−Tz)/Tz]=−50. However, due to 72 hours treatment, low cell seeding density was required and LC50 could rarely be achieved.

HT29 = assay: SRB cell growth assay, 72 h; type: cell-based; details: Homo sapiens, HT-29, most sensitive cell lines
Description: as §1, §2, §3, §4

SAOS2 = assay: SRB cell growth assay, 72 h; type: cell-based; details: Homo sapiens, SAOS-2, highest tested concentration 50 μM, read-out: activity (estimated)
Description: as §1, §2, §3, §4

SKNAS = assay: SRB cell growth assay, 72 h; type: cell-based; details: Homo sapiens, SK-N-AS, most sensitive cell lines
Description: as §1, §2, §3, §4

SF295 = assay: SRB cell growth assay, 72 h; type: cell-based; details: Homo sapiens, SF-295, highest tested concentration 50 μM, read-out: activity (estimated)
Description: as §1, §2, §3, §4

COLO205 = assay: SRB cell growth assay, 72 h; type: cell-based; details: Homo sapiens, COLO 205, most sensitive cell lines
Description: as §1, §2, §3, §4

PC3 = assay: SRB cell growth assay, 72 h; type: cell-based; details: Homo sapiens, PC-3, highest tested concentration 50 μM, read-out: activity (estimated)
Description: as §1, §2, §3, §4

SKOV3 = assay: SRB cell growth assay, 72 h; type: cell-based; details: Homo sapiens, SK-OV-3, highest tested concentration 50 μM, read-out: activity (estimated)
Description: as §1, §2, §3, §4

CLS439 = assay: SRB cell growth assay, 72 h; type: cell-based; details: Homo sapiens, highest tested concentration 50 μM, read-out: activity (estimated)
Description: as §1, §2, §3, §4

EFO21 = assay: SRB cell growth assay, 72 h; type: cell-based; details: Homo sapiens, EFO-21, highest tested concentration 50 μM, read-out: activity (estimated)
Description: as §1, §2, §3, §4

SKMEL5 = assay: SRB cell growth assay, 72 h; type: cell-based; details: Homo sapiens, SK-MEL-5, most sensitive cell lines
Description: as §1, §2, §3, §4

NCIH292 = assay: SRB cell growth assay, 72 h; type: cell-based; details: Homo sapiens, NCI-H292, most sensitive cell lines
Description: as §1, §2, §3, §4

A375 = assay: SRB cell growth assay, 72 h; type: cell-based; details: Homo sapiens, A-375, most sensitive cell lines
Description: as §1, §2, §3, §4

[1] = system: HCT116 tumor vascular permeability; assay: tumor vascular permeability, Evans Blue extravasation / Dextran-Fitc; type: in vivo, SCID mice; details: (1) 10 mg/kg oral daily day 11 to day 13
Description: HCT116 tumor cells were implanted subcutaneously in the intra-scapular region in SCID mice. […] Each agent was given by oral route on a daily schedule. Tumor growth was monitored throughout the experiment by callipering the tumors. To quantify tumor vascular permeability, tumors were excised under ketamine/Xylazine (120/6 mg/kg ip) anesthesia at day 13, 4 hours post last treatment, 30 min after 0.5% Evans Blue iv injection, and 2 min post Dextran-Fitc 100 mg/kg iv injection. Tumors were then snap frozen, and 25 μm sections obtained for fluorescence quantification. Tumors sections were imaged with Icyte at 488 nm for vascular Dextran-Fitc determination and at 633 nm for Evans-Blue extravasation determination. Respective fluorescence were quantified as the sum of integral phantoms of fluorescence intensity and expressed as the mean ratio of Evans-Blue signal/Dextran-Fitc Signal.

[2] = mice and rats; cited from earlier work
IMR90 = assay: SRB cell growth assay, 72 h; type: cell-based; details: Homo sapiens, IMR-90, most sensitive, z-score <−1.5
Description: as §1, §2, §3, §4

IGROV1 = assay: SRB cell growth assay, 72 h; type: cell-based; details: Homo sapiens, IGROV-1, most sensitive, z-score <−1.5
Description: as §1, §2, §3, §4

CAKI1 = assay: SRB cell growth assay, 72 h; type: cell-based; details: Homo sapiens, CAKI-1, most sensitive, z-score <−1.5
Description: as §1, §2, §3, §4

A204 = assay: SRB cell growth assay, 72 h; type: cell-based; details: Homo sapiens, most sensitive, z-score <−1.5
Description: as §1, §2, §3, §4

SW620 = assay: SRB cell growth assay, 72 h; type: cell-based; details: Homo sapiens, SW-620, non-sensitive, z score >1.5
Description: as §1, §2, §3, §4

[3] = chemical stability of dosing stock solution; type: physicochemical; details: in 1N HCl and water for injection, pH 3; in the dark at 4° C.
Description: Compound (2a) formulation was prepared in water for injection. The stock solution was chemically stable 7 days in the dark at 4° C. […] The pH of the final solution was 3. […]

Structure (SMILES): O=C(NC[C@H](O)CO)c1ccncc1Nc1ccc(I)cc1F [Compound (1), N—((S)-2,3-dihydroxypropyl)-3-(2-fluoro-4-iodo-phenylamino)isonicotinamide]
- IC50 (TE671): 4.8 to 8 nM
- IC50 (HT29): 4.8 to 8 nM
- IC50 (SAOS2): > 50000 nM
- IC50 (SKNAS): 4.8 to 8 nM
- IC50 (SF295): > 50000 nM
- IC50 (COLO205): 4.8 to 8 nM
- IC50 (PC3): > 50000 nM
- IC50 (SKOV3): > 50000 nM
- IC50 (CLS439): > 50000 nM
- IC50 (EFO21): > 50000 nM
- IC50 (SKMEL5): 4.8 to 8 nM
- IC50 (NCIH292): 4.8 to 8 nM
- IC50 (A375): 4.8 to 8 nM
- decrease of the Evans-Blue/Dextran-Fitc ratio compared to control [1]: −9%
- clearance [2]: 15 to 43.3 mL/min/kg
- half-life [2]: 2.2 to 4.7 h
- oral bioavailability [2]: 52-57%

Structure (SMILES): CCn1c(=O)c(-c2ccn[nH]2)cc2c(C)nc(N)nc21 [Compound (2b), 2-amino-8-ethyl-4-methyl-6-(1H-pyrazol-5-yl)pyrido[2,3-d]pyrimidin-7(8H)-one]
- GI50 (IMR90): < 500 nM
- GI50 (IGROV1): < 500 nM
- GI50 (CAKI1): < 500 nM
- GI50 (A204): < 500 nM
- GI50 (SW620): > 4000 nM
- stock solution chemically stable [3]: 7 days

From patent publication US20140024653A1, “COMPOSITIONS AND METHODS FOR TREATING CANCER USING PI3K INHIBITOR AND MEK INHIBITOR” (priority 2011, published 2014)
